{"source": "patent US12544375B2", "about": "“Small molecule therapeutic for parkinson's disease paired with a biomarker of therapeutic activity” (The Board of Trustees of the Leland Stanford Junior …, priority 2019, dated 2026)", "target": "T1, Miro1 (Homo sapiens, UniProt Q8IXI2)", "T1 construct": "We applied compound 3 to fibroblasts from one sporadic PD patient (PD-2); endogenous in cells; host or cells: human skin fibroblasts (PD-2, Healthy-1 and further PD/control lines)", "T1 sequence (Q8IXI2 whole entry)": "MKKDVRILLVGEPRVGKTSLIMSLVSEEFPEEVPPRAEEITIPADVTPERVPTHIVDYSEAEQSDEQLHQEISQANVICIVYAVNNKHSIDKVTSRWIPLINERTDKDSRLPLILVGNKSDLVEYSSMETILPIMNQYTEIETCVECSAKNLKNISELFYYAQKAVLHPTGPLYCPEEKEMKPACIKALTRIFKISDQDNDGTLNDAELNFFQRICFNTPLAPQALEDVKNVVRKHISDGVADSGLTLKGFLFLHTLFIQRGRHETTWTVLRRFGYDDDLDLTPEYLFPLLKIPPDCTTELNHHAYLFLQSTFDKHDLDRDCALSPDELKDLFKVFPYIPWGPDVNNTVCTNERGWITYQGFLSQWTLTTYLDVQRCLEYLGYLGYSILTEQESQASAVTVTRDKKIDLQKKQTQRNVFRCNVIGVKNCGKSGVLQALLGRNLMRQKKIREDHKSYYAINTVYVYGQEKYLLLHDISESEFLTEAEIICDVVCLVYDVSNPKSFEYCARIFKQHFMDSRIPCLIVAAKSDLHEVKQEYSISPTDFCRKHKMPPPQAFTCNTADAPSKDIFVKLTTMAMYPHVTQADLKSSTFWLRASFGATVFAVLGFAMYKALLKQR", "test": "Ubiquitination of immunoprecipitated Miro1 after CCCP 1 hr", "type": "cell-based", "settings": "PD-2 fibroblasts, with or without Miro1 Reducer", "method": "FIG. 8. Related to FIG. 2-4. Miro1 Reducer in Human Cell and Fly Models. (A) Fibroblasts from Healthy-1 and PD-2 were treated, lysed, and blotted as indicated. Band intensities are normalized to those of GAPDH from the same blots and compared to “Healthy-1, no treatment”. n=4 independent experiments. (B) Fibroblasts from PD-2 were treated and immunostained as indicated. The intensity was quantified for each cell across 264-320 cells from 3 independent experiments, compared to “no treatment”. (C) Fibroblasts were treated, immunoprecipitated (IPed) with anti-Miro1, and blotted as indicated. Similar results were observed twice. (D) Similar as in (C), fibroblasts were treated as indicated, and IPed with anti-Miro1. The GTPase activity of the IPed Miro1 protein was measured as described in Method. […] The MitoSox intensity was quantified for each cell across 106-161 cells from 3 coverslips. […] The TMRM intensity was measured for each cell across 48-60 cells from 3 independent experiments, and expressed as a fraction of the mean of “Healthy-1, no treatment”. […] The movement (the intensity of non-yellow) was quantified for each cell as described in (Tsai et al., 2014) across 22-31 cells from 3 transfections. […] (1) Left: The percentage of TH-positive iPSC-derived neurons out of total cells (Dapi-positive) is calculated after immunocytochemistry under 20× as described in FIG. 3. […]"}
{"compound": "O=C(Nc1ccc(Nc2cc(-n3ccnc3)ncn2)cc1)Nc1cccc(F)c1", "note": "[Miro1 Reducer]", "values": [{"measurement": "depolarization-elicited increase of ubiquitination of IPed Miro1", "result": "did not occur"}]}
